From PMC11435058, “Synthesis of New Thiazole-Privileged Chalcones as Tubulin Polymerization Inhibitors with Potential Anticancer Activities” (Pharmaceuticals, 2024)

Key:
COLO 205 = experiment: NCI-60 anticancer screen (SRB; single dose and five doses); conditions: Homo sapiens
NCI-H522 = experiment: as above; conditions: Homo sapiens
NCI-H226 = experiment: as above; conditions: Homo sapiens
SN12C = experiment: as above; conditions: Homo sapiens
SNB-75 = experiment: as above
PC-3 = experiment: as above; conditions: Homo sapiens
NCI-H322M = experiment: as above; conditions: Homo sapiens
HCT-15 = experiment: as above; conditions: Homo sapiens
SW-620 = experiment: as above; conditions: Homo sapiens
OVCAR-3 = experiment: cells; conditions: Homo sapiens
A549/ATCC = experiment: NCI-60 anticancer screen (SRB; single dose and five doses); conditions: Homo sapiens
BT-549 = experiment: as above; conditions: Homo sapiens
RXF 393 = experiment: as above; conditions: Homo sapiens
HL-60(TB) = experiment: as above; conditions: Homo sapiens
ACHN = experiment: as above; conditions: Homo sapiens
SF-268 = experiment: as above; conditions: Homo sapiens
A498 = experiment: as above; conditions: Homo sapiens
UACC-257 = experiment: as above; conditions: Homo sapiens
M14 = experiment: as above; conditions: Homo sapiens
MDA-MB-468 = experiment: as above; type: cell-based, human
In short: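 Readout was sulforhodamine B staining, read spectrophotometrically as percent growth against untreated controls. This followed a 48 h exposure to one 10μM dose across roughly 60 human tumor lines of the NCI screen.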

786-0 = experiment: as above; conditions: Homo sapiens
MOLT-4 = experiment: as above; conditions: Homo sapiens
NCI-H460 = experiment: as above; conditions: Homo sapiens
SK-MEL-2 = experiment: as above; conditions: Homo sapiens
MALME-3M = experiment: as above; conditions: Homo sapiens
[1] = 48 h, read-out: Growth Percentage

With `Cc1[nH]c(=S)sc1C(=O)/C=C/c1cccc([N+](=O)[O-])c1` [2h, (E)-1-(4-Methyl-2-Thioxo-2,3-Dihydrothiazol-5-yl)-3-(3-Nitrophenyl)Prop-2-En-1-One] the GI50 (COLO 205; COLO 205) was 5.75 µM, the IC50 (COLO 205; COLO 205) was 8.71 µM and the activity at 10 µM (COLO 205; COLO 205, 48 h, read-out: Growth Percentage) was -24.9%. The CC50 (COLO 205; COLO 205, read-out: LC50) was 51.3 µM, the IC (TGI) (COLO 205; COLO 205, read-out: TGI) was 19.1 µM and the GI50 (NCI-H522; NCI-H522) was 5.01 µM. It also gave an IC50 (NCI-H522; NCI-H522) of 11.8 µM, an activity at 10 µM (NCI-H522; NCI-H522, 48 h, read-out: Growth Percentage) of -58.8% and a CC50 (NCI-H522; NCI-H522, read-out: LC50) of 46.8 µM. The IC (TGI) (NCI-H522; NCI-H522, read-out: TGI) was 17.8 µM, the GI50 (NCI-H226; NCI-H226) was 11.2 µM and the IC50 (NCI-H226; NCI-H226) was 33.1 µM. The activity at 10 µM (NCI-H226; NCI-H226, 48 h, read-out: Growth Percentage) was -41.9%, the CC50 (NCI-H226; NCI-H226, read-out: LC50) was greater than 100 µM and the IC (TGI) (NCI-H226; NCI-H226, read-out: TGI) was 38 µM. The GI50 (SN12C) was 2.69 µM, the IC50 (SN12C) was 4.37 µM and the activity at 10 µM (SN12C; [1]) was -25.6%. It also gave a CC50 (SN12C; read-out: LC50) of 33.1 µM, an IC (TGI) (SN12C; read-out: TGI) of 10.2 µM and a GI50 (SNB-75; Homo sapiens, SNB-75) of 2.29 µM. It also gave an IC50 (SNB-75; Homo sapiens, SNB-75) of 8.51 µM, a CC50 (SNB-75; Homo sapiens, SNB-75, read-out: LC50) of 27.5 µM and a TGI (SNB-75; five-dose, CNS Cancer SNB-75) of 7.41 µM. It also gave a GI50 (PC-3; PC-3) of 4.07 µM, an IC50 (PC-3; PC-3) of 8.13 µM and an activity at 10 µM (PC-3; PC-3, 48 h, read-out: Growth Percentage) of 8.43%. The CC50 (PC-3; PC-3, read-out: LC50) was 56.2 µM, the IC (TGI) (PC-3; PC-3, read-out: TGI) was 17.8 µM and the GI50 (NCI-H322M) was 8.71 µM. It also gave an IC50 (NCI-H322M) of 17.4 µM, an activity at 10 µM (NCI-H322M; [1]) of 28.9% and a CC50 (NCI-H322M; read-out: LC50) of 50.1 µM. For the same compound, the IC (TGI) (NCI-H322M; read-out: TGI) was 21.9 µM, the GI50 (HCT-15; HCT-15) was 2.14 µM and the IC50 (HCT-15; HCT-15) was 3.47 µM. The activity at 10 µM (HCT-15; HCT-15, 48 h, read-out: Growth Percentage) was -36.4%, the CC50 (HCT-15; HCT-15, read-out: LC50) was 31.6 µM and the IC (TGI) (HCT-15; HCT-15, read-out: TGI) was 7.76 µM. The GI50 (SW-620; SW-620) was 3.39 µM, the IC50 (SW-620; SW-620) was 4.07 µM and the activity at 10 µM (SW-620; SW-620, 48 h, read-out: Growth Percentage) was -37.8%. The CC50 (SW-620; SW-620, read-out: LC50) was 45.7 µM, the IC (TGI) (SW-620; SW-620, read-out: TGI) was 11 µM and the GI50 (OVCAR-3; OVCAR-3) was 2.4 µM. It also gave an activity at 10 µM (OVCAR-3; OVCAR-3, 48 h, read-out: Growth Percentage) of -79.5%, an IC50 (OVCAR-3; OVCAR-3, five-dose, Ovarian Cancer OVCAR-3) of 4.37 µM and a CC50 (OVCAR-3; OVCAR-3, read-out: LC50) of 24 µM. For the same compound, the IC (TGI) (OVCAR-3; OVCAR-3, read-out: TGI) was 6.46 µM, the GI50 (A549/ATCC; A549) was 3.24 µM and the IC50 (A549/ATCC; A549) was 4.47 µM. For the same compound, the activity at 10 µM (A549/ATCC; A549, 48 h, read-out: Growth Percentage) was 19.5%, the CC50 (A549/ATCC; A549, read-out: LC50) was 55 µM and the IC (TGI) (A549/ATCC; A549, read-out: TGI) was 12 µM. It also gave a GI50 (BT-549; BT-549) of 3.8 µM, an IC50 (BT-549; BT-549) of 13.5 µM and an activity at 10 µM (BT-549; BT-549, 48 h, read-out: Growth Percentage) of -14%. It also gave a CC50 (BT-549; BT-549, read-out: LC50) of 43.6 µM, an IC (TGI) (BT-549; BT-549, read-out: TGI) of 14.8 µM and a GI50 (RXF 393; RXF 393) of 10.2 µM. The IC50 (RXF 393; RXF 393) was 24.6 µM, the activity at 10 µM (RXF 393; RXF 393, 48 h, read-out: Growth Percentage) was -91.9% and the CC50 (RXF 393; RXF 393, read-out: LC50) was 47.9 µM. For the same compound, the IC (TGI) (RXF 393; RXF 393, read-out: TGI) was 22.4 µM, the GI50 (HL-60(TB); HL-60) was 1.95 µM and the IC50 (HL-60(TB); HL-60) was 3.31 µM. The activity at 10 µM (HL-60(TB); HL-60, 48 h, read-out: Growth Percentage) was 5.25%, the CC50 (HL-60(TB); HL-60, read-out: LC50) was greater than 100 µM and the IC (TGI) (HL-60(TB); HL-60, read-out: TGI) was 5.75 µM. The GI50 (ACHN) was 4.07 µM, the IC50 (ACHN) was 6.17 µM and the activity at 10 µM (ACHN; [1]) was -58.4%. It also gave a CC50 (ACHN; read-out: LC50) of 38.9 µM, an IC (TGI) (ACHN; read-out: TGI) of 14.8 µM and a GI50 (SF-268; SF-268) of 10.5 µM. For the same compound, the IC50 (SF-268; SF-268) was 19.1 µM, the activity at 10 µM (SF-268; SF-268, 48 h, read-out: Growth Percentage) was 27.5% and the CC50 (SF-268; SF-268, read-out: LC50) was 57.5 µM. For the same compound, the IC (TGI) (SF-268; SF-268, read-out: TGI) was 24.6 µM, the GI50 (A498; A498) was 14.8 µM and the IC50 (A498; A498) was 29.5 µM. The CC50 (A498; A498, read-out: LC50) was 55 µM, the IC (TGI) (A498; A498, read-out: TGI) was 28.2 µM and the GI50 (UACC-257; UACC-257) was 3.39 µM. It also gave an IC50 (UACC-257; UACC-257) of 10 µM, an activity at 10 µM (UACC-257; UACC-257, 48 h, read-out: Growth Percentage) of 9.4% and a CC50 (UACC-257; UACC-257, read-out: LC50) of 38 µM. For the same compound, the IC (TGI) (UACC-257; UACC-257, read-out: TGI) was 13.5 µM, the GI50 (M14; M14) was 7.08 µM and the IC50 (M14; M14) was 11.8 µM. For the same compound, the activity at 10 µM (M14; M14, 48 h, read-out: Growth Percentage) was 1.86%, the CC50 (M14; M14, read-out: LC50) was 83.2 µM and the IC (TGI) (M14; M14, read-out: TGI) was 25.7 µM. For the same compound, the activity at 10 µM (MDA-MB-468; Homo sapiens, 48 h, MDA-MB-468, dose of 10 μM, read-out: Growth Percentage) was -82.9%, the IC50 (MDA-MB-468; Homo sapiens, MDA-MB-468, MDA-MB-468, Breast Cancer, five dose) was 7.76 µM and the GI50 (MDA-MB-468; Homo sapiens, MDA-MB-468, Breast Cancer, five dose) was 2.95 µM. It also gave a CC50 (MDA-MB-468; Homo sapiens, MDA-MB-468, Breast Cancer, five dose, read-out: LC50 (the source's name)) of 40.7 µM, a TGI (MDA-MB-468; MDA-MB-468, Breast Cancer, five dose) of 10.72 µM and a GI50 (786-0; 786-0) of 3.98 µM. For the same compound, the IC50 (786-0; 786-0) was 6.31 µM, the activity at 10 µM (786-0; 786-0, 48 h, read-out: Growth Percentage) was -10.8% and the CC50 (786-0; 786-0, read-out: LC50) was 50.1 µM. The IC (TGI) (786-0; 786-0, read-out: TGI) was 15.8 µM, the GI50 (MOLT-4; MOLT-4) was 3.47 µM and the IC50 (MOLT-4; MOLT-4) was 5.01 µM. It also gave an activity at 10 µM (MOLT-4; MOLT-4, 48 h, read-out: Growth Percentage) of 13.3%, a CC50 (MOLT-4; MOLT-4, read-out: LC50) greater than 100 µM and an IC (TGI) (MOLT-4; MOLT-4, read-out: TGI) of 30.2 µM. The GI50 (NCI-H460; NCI-H460) was 3.63 µM, the IC50 (NCI-H460; NCI-H460) was 4.27 µM and the activity at 10 µM (NCI-H460; NCI-H460, 48 h, read-out: Growth Percentage) was -30.7%. The CC50 (NCI-H460; NCI-H460, read-out: LC50) was 55 µM, the IC (TGI) (NCI-H460; NCI-H460, read-out: TGI) was 13.8 µM and the GI50 (SK-MEL-2; SK-MEL-2) was 12.6 µM. The IC50 (SK-MEL-2; SK-MEL-2) was 26.9 µM, the activity at 10 µM (SK-MEL-2; SK-MEL-2, 48 h, read-out: Growth Percentage) was 16.9% and the CC50 (SK-MEL-2; SK-MEL-2, read-out: LC50) was 53.7 µM. It also gave an IC (TGI) (SK-MEL-2; SK-MEL-2, read-out: TGI) of 26.3 µM, a GI50 (MALME-3M) of 12.3 µM and an IC50 (MALME-3M) of 24.6 µM. It also gave an activity at 10 µM (MALME-3M; [1]) of -42.9%, a CC50 (MALME-3M; read-out: LC50) of 55 µM and an IC (TGI) (MALME-3M; read-out: TGI) of 26.3 µM.
